Bridge positions count the residues as written; N and C are the ends. Square brackets hold non-standard residues; d marks the D form. Peptide text beside a SMILES is read from it.
Assays:
[1] = test system: H1N1 A/PR/8/1934; details: A/PR/8/1934, 48 h, 1 μM
[2] = test system: H9N2 A/Iran/16/2000; details: 48 h, 500 μM
[3] = test system: H1N1 A1/Malaysia/302/1954; details: A1/Malaysia/302/1954, 48 h, 500 μM
[4] = test system: H3N8 A/Miami/2/63; details: A/Miami/2/63, 48 h, 500 μM

## CC[C@@H](C)[C@H]1NC(=O)[C@@H](Cc2ccccc2)NC(=O)[C@@H]([C@H](C)O)NC(=O)[C@@H](Cc2ccccc2)NC(=O)[C@@H](Cc2c[nH]c3ccccc23)NC(=O)[C@@H](CCCNC(=N)N)NC(=O)[C@H](NC(=O)[C@H](CCCCN)NC(=O)[C@H](CCCCN)NC(=O)[C@H](CCCNC(=N)N)NC(=O)[C@@H](N)CCCNC(=N)N)CSSC[C@H](C(=O)O)NC(=O)[C@@H](CC(N)=O)NC1=O [PSP V A15, H-RRKKcrwftfinc-OH] (H-RRKK[dC][dR][dW][dF][dT][dF][dI][dN][dC]-OH; disulfide 5-13)
[1]
  % Inhibition: 87%

## CC[C@@H](C)[C@H]1NC(=O)[C@@H](Cc2ccccc2)NC(=O)[C@@H]([C@H](C)O)NC(=O)[C@@H](Cc2ccccc2)NC(=O)[C@@H](Cc2c[nH]c3ccccc23)NC(=O)[C@@H](Cc2c[nH]c3ccccc23)NC(=O)[C@H](NC(=O)[C@H](CCCCN)NC(=O)[C@H](CCCCN)NC(=O)[C@H](CCCNC(=N)N)NC(=O)[C@@H](N)CCCNC(=N)N)CSSC[C@H](C(=O)O)NC(=O)[C@@H](CS)NC1=O [PSP VI A2, H-RRKKcwwftficc-OH] (H-RRKK[dC][dW][dW][dF][dT][dF][dI][dC][dC]-OH; disulfide 5-13)
[1]
  % Inhibition: 95%

## CC[C@@H](C)[C@H]1NC(=O)[C@@H](Cc2ccccc2)NC(=O)[C@@H](CCCNC(=N)N)NC(=O)[C@@H](CO)NC(=O)[C@@H]([C@H](C)CC)NC(=O)[C@@H]([C@H](C)O)NC(=O)[C@H](NC(=O)[C@@H](CCCCN)NC(=O)[C@@H](CCCCN)NC(=O)[C@@H](CCCNC(=N)N)NC(=O)[C@H](N)CCCNC(=N)N)CSSC[C@H](C(=O)O)NC(=O)[C@@H](CC(N)=O)NC1=O [PSP II A8, H-rrkkctisrfinc-OH] (H-[dR][dR][dK][dK][dC][dT][dI][dS][dR][dF][dI][dN][dC]-OH; disulfide 5-13)
[2]
  % inhibition H9N2: 20%
[3]
  % inhibition H1N1: 75%
[4]
  % inhibition H3N8: 77.8%

## CC[C@@H](C)[C@H]1NC(=O)[C@@H](Cc2ccccc2)NC(=O)[C@@H](CCCNC(=N)N)NC(=O)[C@@H](CO)NC(=O)[C@@H](CC(C)C)NC(=O)[C@@H]([C@H](C)O)NC(=O)[C@H](NC(=O)[C@@H](CCCCN)NC(=O)[C@@H](CCCCN)NC(=O)[C@@H](CCCNC(=N)N)NC(=O)[C@H](N)CCCNC(=N)N)CSSC[C@H](C(=O)O)NC(=O)[C@@H](CC(N)=O)NC1=O [PSP II A10, H-rrkkctisrfinc-OH] (H-[dR][dR][dK][dK][dC][dT][dL][dS][dR][dF][dI][dN][dC]-OH; disulfide 5-13)
[2]
  % inhibition H9N2: 40%
[3]
  % inhibition H1N1: 63.5%
[4]
  % inhibition H3N8: 88.9%

## CC[C@@H](C)[C@H]1NC(=O)[C@@H](Cc2ccccc2)NC(=O)[C@@H](CCCNC(=N)N)NC(=O)[C@@H](CO)NC(=O)[C@@H]([C@H](C)O)NC(=O)[C@@H]([C@H](C)O)NC(=O)[C@H](NC(=O)[C@@H](CCCCN)NC(=O)[C@@H](CCCCN)NC(=O)[C@@H](CCCNC(=N)N)NC(=O)[C@H](N)CCCNC(=N)N)CSSC[C@H](C(=O)O)NC(=O)[C@@H](CC(N)=O)NC1=O [PSP II A17, H-rrkkcttsrfinc-OH] (H-[dR][dR][dK][dK][dC][dT][dT][dS][dR][dF][dI][dN][dC]-OH; disulfide 5-13)
[2]
  % inhibition H9N2: 80%
[3]
  % inhibition H1N1: 67.3%
[4]
  % inhibition H3N8: 70.6%

## C[C@H](O)[C@H]1NC(=O)[C@H](N)CSSC[C@H](C(=O)O)NC(=O)[C@@H](CC(N)=O)NC(=O)[C@@H](CCCCN)NC(=O)[C@@H](Cc2ccccc2)NC(=O)[C@@H](CCCNC(=N)N)NC(=O)[C@@H](CO)NC(=O)[C@@H](CCCCN)NC1=O [PSP 9, H-ctksrfknc-OH] (H-[dC][dT][dK][dS][dR][dF][dK][dN][dC]-OH; disulfide 1-9)
[2]
  % inhibition H9N2: 31.8%
[3]
  % inhibition H1N1: 17.6%
[4]
  % inhibition H3N8: 62.9%

From patent US10538554B2, “Peptides and uses therefor as antiviral agents” (priority 2015, dated 2020)
